Experimental data: patent publication EP0173262A2, “Use of 1,4-naphthoquinone derivatives in a low concentration as immunostimulating agents” (Carnivora-Deutschland GmbH, priority 1984, dated 1986)

Columns and labels:
[1] = test system: Granulozyten; assay: Granulocyte test (modified after Brandt), phagocytosis of yeast particles; assay type: cell-based; details: concentration range 10^-1 bis 10^-2 mg/ml
Text: (§1) Die vorliegende Erfindung beruht auf dem erstmaligen Nachweis einer Immunstimulation durch 1,4-Naphthochinon-Derivate der angegebenen Art. Die Immunstimulation läßt sich experimentell in vitro und in vivo klar nachweisen. Als geeignete immunologische Testverfahren dienen der Carbon Clearance-Test (CCT)-RES-Funktion (Biozzi, G. Benacerraf, B. und Halpern, B.N., Br. J. Exp.Pathol. 34, 441 (1953)); der Granulocyten-Test gemäß Brandt, L., Scand.J.Haematol. Suppl. 2 (1967), der vorzugsweise in modifizierter Form angewandt wird; sowie eine Chemoluminenszenz-Messung nach Allen (Allen, R.C. in "Bioluminescence and Chemiluminescence; Basic Chemistry and Analytical Applications", Eds: De Luca und Mc Elroy, S. 63-73, Academie Press, New York, 1981).
In 20 ml Spritze 1 Tropfen Heparin (Thrombophob) und ca. 10 ml Blut abnehmen und mit 1,5% Dextran T 500 im Verhältnis 2:1 mischen. Kanüle auf der Spritz umbiegen und 30 Minuten bei 25°C absetzen lassen (ca. 2-3 ml Blut für Eigenserum abnehmen).
Den Überstand (Leukozytensuspension) in steriles Röhrchen überspritzen; 7 Minuten bei 500 U. zentrifugieren.
Überstand weggießen, Bodensatz (Leukozyten) 2 mal mit RPM I-Puffer bei 500 U. waschen.
Granulozyten mit ca. 5 ml Puffer auffüllen und Zellen auf 5 x 10 x 10^6 einstellen. […] Zellsuspension in 0,475 ml 3 % iger Essigsäure mischen. In Neubauerkammer 4 Quadrate auszählen (100 Zellen/Kammer). […]

[2] = test system: polymorphkernigen Leucocyten (PMNL); assay: Chemiluminescence measurement (modified after Allen), zymosan-stimulated PMNL; assay type: cell-based; details: concentration range 10^-1 bis 10^-2 mg/ml
Text: as §1
• a) PBS-Puffer ohne Ca^2+ und Mg^2+ (steril) (Fa. Biochrom, Berlin) • b) Veronal-gepufferte Kochsalzlösung mit Ca^2+, Mg^2+, Glucose und Albumin Stammlösung: 8.3 g NaCl, 1.02 g Natrium, 5,5-Diäthylbarbiturat (Veronal), 102 mg MgCl2, 22 mgCaCl2 in 150 ml H2O (bidest.) lösen, + 3.5 ml 1M IICL auf 200 ml mit H20 (bidest.) auffüllen. Von dieser Stammlösung werden 40 ml mit 140 ml H20 (bidest.) verdünnt, mit 1M HCL auf pH 7.0 eingestellt und mit II20 (bidest.) auf 200 ml auf gefüllt. […]

CC1=CC(=O)c2c(O)cccc2C1=O [Plumbagin]
effect on phagocytosis at higher concentrations [1]: ausgeprägte Phagocytosehemmung | effect at higher concentrations [2]: Phagocytosehemmung sowie eine Immunsuppression bzw. Cytotoxicität
